Laboratory results taken from paper PMC7962978, “PSMA-D4 Radioligand for Targeted Therapy of Prostate Cancer: Synthesis, Characteristics and Preliminary Assessment of Biological Properties” (International Journal of Molecular Sciences, 2021).
Where two headings read alike, the source gives them in different places.

Columns and labels:
LNCaP cells = assay: Cell uptake (total binding) and internalization in LNCaP cells; assay type: cell-based, human; conditions: 37 °C, 2 h
Experimental: To determine cell uptake and internalization of [^177Lu]Lu-PSMA-D4 and [^90Y]Y-PSMA-D4, LNCaP cells (5 × 10^5 cells well^−1) were incubated in un-supplemented RPMI 1640 medium with one concentration of tested radioligands on 12-well plates in 37 °C per 2 h. After the appropriate time, the medium was removed, and cells were washed twice using phosphate buffer saline (PBS, IITD PAN, Wroclaw, Poland). The cells were treated twice with 1 mL of 50 mM glycine in 0.1 M NaCl at a pH of 2.8 and incubated for 5 min at room temperature to collect extracellularly bound compound. The internalization was determined by measuring the radioactivity of 1mL of 1 M NaOH used for cell lysis. Total binding was calculated as a sum of the membrane and internalized fractions measured using Wallac Wizard 1470 γ counter. As a control, [^177Lu]Lu-PSMA-617 and [^68Ga]Ga-PSMA-11 were used.

PSMA antigen [1] = target: T1, PSMA antigen (Homo sapiens, UniProt Q04609); assay: Competitive binding assay on LNCaP cell membranes with [^177Lu]Lu-PSMA-617 as radioligand; conditions: radioligand [^177Lu]Lu-PSMA-617, 2 h incubation
T1 construct: PSMA antigen expressed on LNCaP cell membranes; endogenous in cells; host or cells: LNCaP cell membranes (PC3 membranes as PSMA-negative control)
T1 sequence (Q04609 whole entry): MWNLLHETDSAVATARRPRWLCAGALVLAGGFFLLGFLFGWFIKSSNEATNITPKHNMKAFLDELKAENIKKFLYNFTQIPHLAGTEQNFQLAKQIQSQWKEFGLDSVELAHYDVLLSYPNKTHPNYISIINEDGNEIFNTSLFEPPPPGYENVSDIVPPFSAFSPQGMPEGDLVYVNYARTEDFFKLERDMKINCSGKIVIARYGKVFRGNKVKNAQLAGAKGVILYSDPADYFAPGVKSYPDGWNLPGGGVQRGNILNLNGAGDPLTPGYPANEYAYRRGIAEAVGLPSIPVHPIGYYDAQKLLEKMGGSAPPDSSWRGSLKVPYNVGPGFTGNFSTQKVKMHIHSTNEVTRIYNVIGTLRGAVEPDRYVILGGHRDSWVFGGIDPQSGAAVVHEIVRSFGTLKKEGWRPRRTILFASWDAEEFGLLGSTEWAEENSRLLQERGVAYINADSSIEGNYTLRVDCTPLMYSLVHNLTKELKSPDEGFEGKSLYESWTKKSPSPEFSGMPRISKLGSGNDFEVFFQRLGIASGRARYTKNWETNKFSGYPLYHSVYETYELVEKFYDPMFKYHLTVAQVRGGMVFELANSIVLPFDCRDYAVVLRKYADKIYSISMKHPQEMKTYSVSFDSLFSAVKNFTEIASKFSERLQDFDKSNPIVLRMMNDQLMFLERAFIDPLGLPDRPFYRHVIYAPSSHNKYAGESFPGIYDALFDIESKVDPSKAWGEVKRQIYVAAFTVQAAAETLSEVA
Experimental: The half-maximal inhibitory concentration (IC50) of PSMA-D4 was determined in a competitive binding assay carried out on 96-well MuliScreen filter plates using LNCaP cell membranes (50 mcL) incubated with [^177Lu]Lu-PSMA-617 as a radioligand and ten different concentrations (2.4–9708 nM) of PSMA-D4. After 2 h incubation, plates were treated in the same way as in the saturation binding assay. The amount of bound radioactivity was measured in γ-counter. IC50 value was evaluated using GraphPad Prism software (Darmstadt, Germany).

mCRPC patients = system: mCRPC patients; design: method as in PMID 32172798, PMID 31418764, PMID 32290196; conditions: four clinical studies, approximately 150 mCRPC patients; cited from earlier work
PSMA = system: PSMA; design: method as in earlier work; conditions: ref 34 (Tönnesmann R et al.); cited from earlier work
[2] = system: PC-3 PIP (PSMA positive) tumor-bearing mice; design: method as in PMID 28102507; conditions: PC-3 PIP tumor, 2 h p.i.v., 1 nmol, BALB/c Nude mice; cited from earlier work
LNCaP tumor-bearing mice = conditions: 1 h p.i.v., cited from earlier work
PSMA antigen [3] = target: T1, PSMA antigen; assay: Saturation radioligand binding assay on LNCaP (PSMA positive) and PC3 (PSMA negative) cell membranes; conditions: for Kd: LNCaP cell membranes, 2 h, 37 °C; for Specific Binding: total binding on LNCaP minus non-specific binding on PC3 membranes
Experimental: The equilibrium constant (KD) was determined by a saturation binding experiment performed in PSMA positive LNCaP and PSMA negative PC3 cell membranes isolated according to the procedure developed by Fichna et al.. The 50 mcL of LNCaP and PC3 cell membranes were seeded on special MultiScreen™ 96 well filter plates (Merck, Warsaw, Poland) and incubated for 2 h with increasing concentration of [^177Lu]Lu-PSMA-D4, [^90Y]Y-PSMA-D4, and […] (0.016–194 nM) at 37 °C. After incubation, the unbound radiocomplexes were filtered under vacuum, and the membranes were washed twice using PBS. The filters containing membranes with the attached radiotracer were extruded into tubes using MultiScreen Multile Punch (Merck). The number of associated inhibitors was determined by measuring the radioactivity of squeezed filters using Wallac Wizard 1470 γ counter. The KD and Bmax were calculated by nonlinear regression using the GraphPad Prism statistic program.

[4] = Lipophilicity determination (logD), shake-flask method; assay type: physicochemical; conditions: n-octanol / PBS pH 7.4, shake-flask
Experimental: The partition coefficient logD of the radioligands was determined by the shake-flask method. The solution of 10 to 50 MBq of radiolabeled PSMA ligands (D-4, 617, 11, I&T) in 1.0 mL of phosphate-buffered saline (PBS, pH 7.4) was added to 1.0 mL of presaturated n-octanol solution (n = 3). Vials were shaken vigorously for 10 min. To achieve quantitative phase separation, the vials were centrifuged at 1600 rpm for 5 min. The radioactivity concentration in a defined volume of both the aqueous and the organic phase in six replicates each was measured in a γ-counter (Wizard 1470, Wallac, Turku, Finland). The partition coefficient was calculated as the logarithm of the ratio between counts per minute (cpm) measured in the n-octanol phase to the PBS phase counts.

[5] = 0.2 nmol, CD-1 nu/nu mice, ref 14
[6] = 0.2 nmol, CD-1 nu/nu mice, ref 37

In the case of `O=C(O)CCc1ccc(O)c(CN(CCN(CC(=O)O)Cc2cc(CCC(=O)NCCCCCC(=O)NCCCC[C@H](NC(=O)N[C@@H](CCC(=O)O)C(=O)O)C(=O)O)ccc2O)CC(=O)O)c1` [PSMA-11, reference compound], the Internalization (LNCaP cells) is reported as 2.6% and the IC50 (PSMA antigen [1]) is reported as 84.5 ± 26.5 nM.
In the case of `O=C([O-])CN1CCN(CC(=O)[O-])CCN(CC(=O)NCC2CCC(C(=O)NC(Cc3ccc4ccccc4c3)C(=O)NCCCCC(NC(=O)NC(CCC(=O)O)C(=O)O)C(=O)O)CC2)CCN(CC(=O)[O-])CC1.[225Ac+3]` (centres unmarked) [PSMA-617 labeled with actinium-225], the hematologic toxicity (mCRPC patients) is given as “extremely low hematologic toxicity” and the “patients with prostate-specific antigen (PSA) response in terms of PSA decline” value (mCRPC patients) is given as about 90%.
In the case of `O=C(O)CC[C@H](NC(=O)N[C@@H](CCCCNC(=O)[C@H](Cc1ccc2ccccc2c1)NC(=O)[C@H]1CC[C@H](CNC(=O)CN2CCN(CC(=O)O)CCN(CC(=O)O)CCN(CC(=O)O)CC2)CC1)C(=O)O)C(=O)O` [PSMA-617, Glu-CO-Lys-2-naphthyl-L-Ala-cyclohexane-DOTA], the IC50 (PSMA) is listed as 2.7 ± 0.1 nM.
Compound `O=C(O)CCC(NC(=O)NC(CCCCNC(=O)C(Cc1c[nH]c2ccccc12)NC(=O)C1CCC(CNC(=O)CN2CCN(CC(=O)O)CCN(CC(=O)O)CCN(CC(=O)O)CC2)CC1)C(=O)O)C(=O)O` [PSMA-D4, Glu-CO-Lys-L-Trp-4-Amc-DOTA] has an IC50 (PSMA antigen [1]) of 28.7 ± 5.2 nM.
For `O=C(O)CC[C@H](NC(=O)N[C@@H](CCCCNC(=O)CCCCCCC(=O)NCCCC[C@@H](NC(=O)[C@@H](Cc1ccccc1)NC(=O)[C@@H](Cc1ccc(O)c(I)c1)NC(=O)CCC(C(=O)O)N1CCN(CC(=O)O)CCN(CC(=O)O)CCN(CC(=O)O)CC1)C(=O)O)C(=O)O)C(=O)O` (some centres unmarked) [PSMA-I&T, Glu-CO-Lys[(Sub)DLys-DPhe-DTyr(3I)-DOTAGA]], the IC50 (PSMA antigen [1]) was 61.1 ± 7.8 nM.
For `O=C([O-])CN1CCN(CC(=O)[O-])CCN(CC(=O)NCC2CCC(C(=O)NC(Cc3ccc4ccccc4c3)C(=O)NCCCCC(NC(=O)NC(CCC(=O)O)C(=O)O)C(=O)O)CC2)CCN(CC(=O)[O-])CC1.[47Sc+3]` (centres unmarked) [[^47Sc]Sc-PSMA-617], the kidneys [2] is given as 5.97 ± 0.90 %ID g^−1, the spleen [2] is given as 0.81 ± 0.34 %ID g^−1 and the tumor [2] is given as 46.7 ± 4.36 %ID g^−1.
For `O=C([O-])CN(CCN(CC(=O)[O-])Cc1cc(CCC(=O)NCCCCCC(=O)NCCCC[C@H](NC(=O)N[C@@H](CCC(=O)O)C(=O)O)C(=O)O)ccc1[O-])Cc1cc(CCC(=O)O)ccc1[O-].[68Ga+3].[OH3+]` [[^68Ga]Ga-PSMA-11], the kidneys [2] is listed as 58.8 ± 7.62 %ID g^−1, the spleen [2] is listed as 2.18 ± 0.38 %ID g^−1 and the tumor [2] is listed as 40.0 ± 2.55 %ID g^−1. The tumor (LNCaP tumor-bearing mice; dose n.d., Nude mice) was 7.28 ± 0.82 %ID g^−1, the Internalization (LNCaP cells) was 2.6% and the “Total Binding” value (LNCaP cells) was 13.1%. For the same compound, the Kd (PSMA antigen [3]) was 11.4 ± 7.1 nM, the “Specific Binding” value (PSMA antigen [3]) was 96.8 ± 2.7% and the logD [4] was −3.46 ± 0.06.
For `O=C([O-])CN1CCN(CC(=O)[O-])CCN(CC(=O)NCC2CCC(C(=O)NC(Cc3ccc4ccccc4c3)C(=O)NCCCCC(NC(=O)NC(CCC(=O)O)C(=O)O)C(=O)O)CC2)CCN(CC(=O)[O-])CC1.[68Ga+3]` (centres unmarked) [[^68Ga]Ga-PSMA-617], the kidneys [2] is given as 3.48 ± 0.18 %ID g^−1, the spleen [2] is given as 0.91 ± 0.14 %ID g^−1 and the tumor [2] is given as 55.8 ± 14.2 %ID g^−1.
`O=C([O-])CN1CCN(CC(=O)[O-])CCN(CC(=O)NCC2CCC(C(=O)NC(Cc3ccc4ccccc4c3)C(=O)NCCCCC(NC(=O)NC(CCC(=O)O)C(=O)O)C(=O)O)CC2)CCN(CC(=O)[O-])CC1.[90Y+3]` (centres unmarked) [[^90Y]Y-PSMA-617] gave a logD [4] of −5.08 ± 0.13.
In the case of `O=C([O-])CN1CCN(CC(=O)[O-])CCN(CC(=O)NCC2CCC(C(=O)NC(Cc3ccc4ccccc4c3)C(=O)NCCCCC(NC(=O)NC(CCC(=O)O)C(=O)O)C(=O)O)CC2)CCN(CC(=O)[O-])CC1.[177Lu+3]` (centres unmarked) [[^177Lu]Lu-PSMA-617], the kidneys [2] is listed as 3.97 ± 0.56 %ID g^−1, the spleen [2] is listed as 0.21 ± 0.03 %ID g^−1 and the tumor [2] is listed as 45.8 ± 4.02 %ID g^−1. The Kd (PSMA) was 2 ± 0.3 nM, the Internalization (LNCaP cells) was 35.4–38.9% and the “Total Binding” value (LNCaP cells) was 10.2–16.8%. For the same compound, the Internalization (LNCaP cells; listed as [^177Lu]Lu-PSMA 617) was 38.9 ± 1.7%, the “Total Binding” value (LNCaP cells; listed as [^177Lu]Lu-PSMA 617) was 12.8 ± 1.0% and the logD [4] was −5.12 ± 0.07.
In the case of `O=C([O-])CC[C@H](NC(=O)N[C@@H](CCCCNC(=O)CCCCCCC(=O)NCCCC[C@@H](NC(=O)[C@@H](Cc1ccccc1)NC(=O)[C@@H](Cc1ccc(O)c(I)c1)NC(=O)CC[C@H](C(=O)[O-])N1CCN(CC(=O)[O-])CCN(CC(=O)[O-])CCN(CC(=O)[O-])CC1)C(=O)[O-])C(=O)[O-])C(=O)[O-].[177Lu+3].[H+].[H+].[H+].[H+].[H+]` [[^177Lu]Lu-PSMA-I&T], the kidneys (LNCaP tumor-bearing mice; [5]) is given as 107.24 ± 15.61 %ID g^−1, the spleen (LNCaP tumor-bearing mice; [5]) is given as 5.85 ± 2.26 %ID g^−1 and the tumor (LNCaP tumor-bearing mice; [5]) is given as 7.96 ± 1.76 %ID g^−1. For the same compound, the kidneys (LNCaP tumor-bearing mice; [6]) was 105.3 ± 15.8 %ID g^−1, the spleen (LNCaP tumor-bearing mice; [6]) was 7.9 ± 2.6 %ID g^−1 and the tumor (LNCaP tumor-bearing mice; [6]) was 8.0 ± 1.7 %ID g^−1. For the same compound, the Kd (PSMA antigen [3]) was 5.1 ± 2.6 nM, the “Specific Binding” value (PSMA antigen [3]) was 97.1 ± 2.9% and the logD [4] was −4.47 ± 0.14.
